Data reported in paper PMC6268093, “Total Synthesis and Antidepressant Activities of Laetispicine and Its Derivatives” (Molecules, 2012).

Key:
hERG potassium channel [1] = target: T1, hERG potassium channel (Homo sapiens, UniProt Q12809); assay: hERG inhibition, automated QPatch patch clamp in CHO cells stably expressing hERG
Description: (§1) A CHO cell line stably expressing hERG potassium channels were voltage clamped using automated QPatch electrophysiology system. Test items were dissolved in DMSO and diluted with external recording buffer. […] Each cell acted as its own control. […] The extent of inhibition of channel was expressed as a percentage of the control response (minus the test compound).

[2] = system: forced swimming mice (immobility); assay: Forced swimming test in mice; type: in vivo, KM mice; details: for inhibition in vivo at 10 mg/kg: Mus musculus, po, mice, 10 mg/kg i.g., 100 × [(control − experiment)/control], read-out: Reduction (%) of immobility time vs control; for Antidepressant activity compared with laetispicine (in words): forced swimming test in mice, 10 mg/Kg
Description: KM mice (18–22 g) of either sex were obtained from Laboratory Animal Center of the College of Medicine, Fudan University. Animals were housed in standard environmental conditions with free access to food and water. The animals were used only once throughout the study. They were allowed to acclimatize to the laboratory seven days before pharmacological tests. The experiment procedures were conducted in compliance with the National Institutes of Health Guide for Care and Use of the laboratory Animals.
Tween 80 was purchased from Sinopharm Chemical Reagent Co., Ltd (Shanghai, China), fluoxetine from Shanghai Zhongxi Pharmaceutical Co., Ltd. All other reagents were of analytical grade. All drugs were dissolved in saline with 2% Tween 80. Drugs (10 mg/kg/2 mL) were administered by intragastric (i.g.) route 60 min before the forced swimming tests. The control group received only saline with 2% Tween 80 simultaneously.
The forced swimming test adopted here is a modification of the method described by Porsoltetal. Briefly, mice were individually forced to swim for 15 min in glass cylinders (height: 20 cm, diameter: 14 cm), containing 10 cm of water at 25 °C, which is a pre-test, and then mice were removed and dried before being returned to cages. Twenty-four hours later, mice were placed in the cylinders again for a 6-min test in the same system depicted above. The duration of immobility was recorded during the last 4 min of the 6-min testing period.
Data obtained were expressed as mean ± SEM and analyzed by analysis of variance (ANOVA) followed by Bonferroni’s test. p-values less than 0.05 (p < 0.05) were used as the significant level. The percent of inhibition was determined using the following formula: Inhibition (%) = 100 × [(control − experiment) / control].

hERG potassium channel [3] = target: T1, hERG potassium channel; assay: in vitro
Description: as §1

T1 sequence (Q12809 whole entry): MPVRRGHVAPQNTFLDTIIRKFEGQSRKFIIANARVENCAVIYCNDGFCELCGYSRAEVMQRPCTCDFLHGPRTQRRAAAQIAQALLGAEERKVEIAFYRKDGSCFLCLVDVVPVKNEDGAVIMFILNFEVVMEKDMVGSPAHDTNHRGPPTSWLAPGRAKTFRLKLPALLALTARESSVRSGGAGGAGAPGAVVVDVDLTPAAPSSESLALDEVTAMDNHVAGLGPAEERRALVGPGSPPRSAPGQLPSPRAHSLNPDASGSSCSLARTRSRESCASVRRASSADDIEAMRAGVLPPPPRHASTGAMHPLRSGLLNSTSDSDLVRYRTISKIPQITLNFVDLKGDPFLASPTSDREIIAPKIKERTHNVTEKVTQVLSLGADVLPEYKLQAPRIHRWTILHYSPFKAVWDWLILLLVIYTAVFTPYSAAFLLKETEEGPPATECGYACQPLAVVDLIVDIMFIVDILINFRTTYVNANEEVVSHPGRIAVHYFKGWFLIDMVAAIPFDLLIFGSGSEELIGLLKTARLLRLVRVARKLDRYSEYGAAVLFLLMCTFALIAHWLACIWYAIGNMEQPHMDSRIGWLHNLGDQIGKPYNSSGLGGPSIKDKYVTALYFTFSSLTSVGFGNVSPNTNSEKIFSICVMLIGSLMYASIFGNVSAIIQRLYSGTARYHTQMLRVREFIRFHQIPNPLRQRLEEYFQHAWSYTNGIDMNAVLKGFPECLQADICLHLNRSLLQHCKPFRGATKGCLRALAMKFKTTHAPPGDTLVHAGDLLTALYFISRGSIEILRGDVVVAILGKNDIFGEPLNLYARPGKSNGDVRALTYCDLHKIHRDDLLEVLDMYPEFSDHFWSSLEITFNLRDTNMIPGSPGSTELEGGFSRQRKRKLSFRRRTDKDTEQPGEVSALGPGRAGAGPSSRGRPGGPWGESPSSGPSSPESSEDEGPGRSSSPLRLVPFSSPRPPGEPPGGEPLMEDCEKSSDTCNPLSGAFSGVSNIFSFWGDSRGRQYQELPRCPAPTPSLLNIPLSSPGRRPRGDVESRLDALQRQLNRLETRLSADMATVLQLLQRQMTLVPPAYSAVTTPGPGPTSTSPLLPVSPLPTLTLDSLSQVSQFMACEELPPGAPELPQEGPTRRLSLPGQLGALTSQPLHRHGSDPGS

Row | Compound | inhibition at 1 µM (hERG potassium channel [1]; human, CHO cells stably expressing hERG) [%] | melting point [°C] | inhibition in vivo at 10 mg/kg [2] [%] | Antidepressant activity compared with laetispicine (in words) [2] | inhibition at 1 µM (hERG potassium channel [3]) [%] | inhibition at 10 µM (hERG potassium channel [3]) [%] | inhibition at 100 µM (hERG potassium channel [3]) [%] | IC50 (hERG potassium channel [1]) [µM]
1 | COc1cc(N)c(Cl)cc1C(=O)NC1CCN(CCCOc2ccc(F)cc2)CC1OC (stereo not shown) [Cisapride, reference compound] | 97.9 ± 0.5 | – | – | – | – | – | – | –
2 | CC(C)CNC(=O)/C=C/C=C/CCC/C=C/Cc1ccccc1 [Compound 1b, N-Isobutyl-11-phenylundeca-2E,4E,9E-trienamide] | – | 80 to 82 | 39 | – | – | – | – | –
3 | COc1ccc(C/C=C/CCC/C=C/C=C/C(=O)NCC(C)C)cc1 [Compound 1c, N-Isobutyl-11-(4-methoxyphenyl)undeca-2E,4E,9E-trienamide] | – | – | 5 | lost their antidepressant activities entirely | – | – | – | –
4 | COc1ccc(C/C=C/CCC/C=C/C=C/C(=O)NCC(C)C)cc1OC [Compound 1d, N-Isobutyl-11-(3,4-dimethoxyphenyl)undeca-2E,4E,9E-trienamide] | – | 61 to 63 | 6 | lost their antidepressant activities entirely | – | – | – | –
5 | COc1cc(C/C=C/CCC/C=C/C=C/C(=O)NCC(C)C)cc(OC)c1OC [Compound 1e, N-Isobutyl-11-(3,4,5-trimethoxyphenyl)undeca-2E,4E,9E-trienamide] | – | 72 to 73 | 27 | less antidepressant activities than laetispicine | – | – | – | –
6 | CC(C)CNC(=O)/C=C/C=C/CCC/C=C/Cc1ccc2c(c1)CCO2 [Compound 1f, N-Isobutyl-11-(2,3-dihydrobenzofuran-5-yl)undeca-2E,4E,9E-trienamide] | – | – | 5 | lost their antidepressant activities entirely | – | – | – | –
7 | CC(C)CNC(=O)/C=C/C=C/CCC/C=C/Cc1ccc2c(c1)OCCO2 [Compound 1g, N-Isobutyl-11-(2,3-dihydrobenzo [1, 4]dioxin-6-yl)undeca-2E,4E,9E-trienamide] | – | 69 to 72 | 29 | less antidepressant activities than laetispicine | – | – | – | –
8 | CC(C)CNC(=O)/C=C/C=C/CCC/C=C/Cc1ccc(Cl)cc1 [Compound 1h, N-Isobutyl-11-(4-chlorophenyl)undeca-2E,4E,9E-trienamide] | – | – | 52 | better antidepressant activities than that of laetispicine | 8 ± 2.3 | 13.9 ± 2 | 24.2 ± 4.9 | > 100
9 | CC(C)CNC(=O)/C=C/C=C/CCC/C=C/Cc1ccc(F)cc1 [Compound 1i, N-isobutyl-11-(4-fluorophenyl)undeca-2E,4E,9E-trienamide] | – | 75 to 77 | 43 | better antidepressant activities than that of laetispicine | 7.1 ± 0.7 | 10.7 ± 0.1 | 17.7 ± 1.5 | > 100
10 | CNCCC(Oc1ccc(C(F)(F)F)cc1)c1ccccc1 (stereo not shown) [Fluoxetine, fluoxetine, reference compound] | – | – | 0 | – | – | – | – | –
11 | CC(C)CNC(=O)/C=C/C=C/CCC/C=C/Cc1ccc2c(c1)OCO2 [Laetispicine (1a), Laetispicine] | – | – | 33 | – | – | – | – | –
